Measurements published in publication PMC7494652 (Bioorganic & medicinal chemistry letters, 2020).
Like-named read-outs stand apart in the source and are kept apart here.

Columns and labels:
[1] = Solubility in sodium phosphate buffer; assay type: physicochemical
human sEH = molecular target: T1, human sEH (Homo sapiens, UniProt P34913); experiment: Inhibition of human sEH, kinetic fluorescent assay
T1 sequence (P34913 1-555): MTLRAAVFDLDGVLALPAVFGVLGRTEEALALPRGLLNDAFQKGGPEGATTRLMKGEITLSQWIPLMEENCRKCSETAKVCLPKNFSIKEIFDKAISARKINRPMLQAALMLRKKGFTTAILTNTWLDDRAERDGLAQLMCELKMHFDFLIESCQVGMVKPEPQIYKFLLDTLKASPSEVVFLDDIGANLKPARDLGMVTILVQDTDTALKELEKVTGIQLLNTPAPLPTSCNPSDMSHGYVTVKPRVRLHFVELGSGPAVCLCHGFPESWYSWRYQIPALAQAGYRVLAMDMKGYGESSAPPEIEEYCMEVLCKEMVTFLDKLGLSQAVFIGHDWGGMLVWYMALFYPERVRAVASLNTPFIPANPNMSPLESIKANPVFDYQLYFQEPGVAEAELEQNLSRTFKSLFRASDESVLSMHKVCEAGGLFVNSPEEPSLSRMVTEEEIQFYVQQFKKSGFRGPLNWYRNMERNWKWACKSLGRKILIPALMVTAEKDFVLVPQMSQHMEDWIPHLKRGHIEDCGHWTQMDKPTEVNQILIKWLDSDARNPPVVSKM

[2] = cited from earlier work

SMILES: CC1(C)[C@H]2CC[C@]1(C)C(NC(=O)Nc1ccccc1F)C2 (mixture of isomers) [(S)-2b]
- solubility ([1]; pH 7.4, aqueous buffer): 225 ± 25 µM

SMILES: O=C(NC1CC2C=CC1C2)N[C@H]1CC[C@H](Oc2ccc(C(=O)O)cc2)CC1 (some centres unmarked) [1a]
- Fold more soluble than t-AUCB ([1]; sodium phosphate buffer): 2 fold
- Solubility compared with t-TUCB ([1]; sodium phosphate buffer): significantly more soluble

SMILES: O=C(NCCCCCCCCNC(=O)NCc1ccco1)NCc1ccco1 [5i]
- IC50 (human sEH): 0.214 µM

SMILES: O=C(Nc1ccc(OC(F)(F)F)cc1)N[C@H]1CC[C@H](Oc2ccc(C(=O)O)cc2)CC1 [t-TUCB]
- solubility [2]: 5[19] μM
